In patent US10000771B2, “Nuclear targeting sequences” (Yeda Research and Development Co. Ltd., priority 2007, dated 2018):
Ends that are not written are not given here. 2GFP = dimer of GFP proteins

Experiments:
Format in all cases: cell-based
COS7 cells = assay: Subcellular fractionation of 2GFP chimeras
Protocol: FIG. 9A is an autoradiograph illustrating the subcellular fractionation of transfected SPS, APA, and EPE peptides fused to a 2GFP in COS7 cells. Western blot analysis of aliquots of the fractions were stained with anti GFP Ab to detect the different chimaras, and with anti tubulin and anti c-Jun Abs as markers for the cytoplasmic and nuclear fractions respectively.
Cellular Fractionation: Transfected COS7 cells were starved (0.1% FBS) for 16 h, after which they were washed with ice-cold PBS, suspended in ice-cold buffer H, and centrifuged (12,000×g, 5 min). Then, the nuclear and cytosolic fractions were isolated as described [H. Rubinfeld, T. Hanoch, R. Seger, J. Biol. Chem. 274, 30349 (1999)]. Briefly, the pellets were suspended in 0.1% NP-40 followed by centrifugation (12,000×g, 5 min). The supernatant, containing the cytosolic fraction, was boiled in sample buffer. The pellet was suspended in extraction buffer (420 mM Nacl, 50 mM β-glycerophosphate, 0.5 mM Na3VO4, 1.5 mM MgCl2, 0.2 mM EDTA, 1 mM DTT, 25% glycerol), incubate on ice for 10 min, sonicated (50 W, 2×7 sec), and centrifuged (12,000×g, 5 min). The supernatant, containing the nuclear fraction, was subjected to Western blot.

CHO cells = assay: Fluorescence microscopy of 2GFP chimeras (subcellular localization); details: 24 hr post transfection, serum-starved
Protocol: FIGS. 8A-8H are photomicrographs illustrating that SPS, APA, and EPE peptides fused to a 2GFP chimera modify its subcellular localization. CHO cells were grown on cover slips and transfected with 19 amino acid from the kinase insert domain of ERK2 including the SPS region (GFP-SPS) fused to a 2GFP chimera and with the same chimeras with substitution of the Ser to Ala (GFP-APA) or substitution to Glu (GFP-EPE). Twenty-four hr later, the cells were serum-starved for 16 hr, fixed, stained with DAPI and visualized by a fluorescence microscope.
Immunofluorescence Microscopy. Cells were fixed (30 min in 3% paraformaldehyde in PBS or 10 min with ice-cold methanol), followed by 5-min permeabilization with 0.2% Triton X-100 in PBS (23° C.). The fixed cells were sequentially incubated with the appropriate Abs (45 min) followed by rhodamine-conjugated secondary Abs (45 min) and DAPI. Slides were visualized using a fluorescence microscope (Nikon, Japan) at 400× magnifications.
To validate the general importance of the SPS domain, a 19 amino acid sequence surroundings the SPS or the APA and EPE mutants was fused to a dimer of GFP proteins (2GFP). Cellular distribution of the chimeras was detected in CHO cells 24 hr post transfection of the GFP constructs.

TEY motif of ERK2 = assay: TEY phosphorylation by Western blot with anti pTEY-ERK; details: COS7 cells, following EGF stimulation
Protocol: FIG. […] ERK2 phosphorylation was detected by Western blot analysis using anti-phosphoTEY-ERK (αpTEY), and anti ERK Abs (αgERK).
Western Blotting: Cell extract was collected as described above, and aliquots from each sample (20 μg) were separated by 10% SDS-PAGE followed by Western blotting with the appropriate antibodies. The blots were developed with alkaline phosphatase or horseradish peroxidase-conjugated anti-mouse’, anti-rabbit and anti-goat Fab Abs.

Substance	localized in the nucleus (COS7 cells) [%]	cellular distribution (CHO cells)	time of peak TEY phosphorylation (TEY motif of ERK2) [min]
2GFP-SPS: 2GFP with the 19 amino acid stretch containing the SPS of ERK2 (SEQ ID NO: 6) fused to its C terminus (2GFP-LDQLNHILGILGSPSQEDL)	15	localized throughout the cell	–
WT-ERK2: wild-type ERK2 fused to GFP, prepared in pEGFP C1 [reference compound]	–	–	5
